Experimental data as given in ChEMBL document CHEMBL1201862, “PubChem BioAssay data set” (2004).
Activity calls are given as the source filed them.

Assays:
[1] = viability inhibitors of stage V gametocytes – luminescence, dose response (AID 1117278); type: functional, cell-based;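 also: gametocytes exposed to compound for 24 hours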
[2] = viability loss in human Jurkat cells – cell-based, luminescence, cytotoxicity control for P. falciparum gametocyte viability project, dose response (AID 1117277); type: functional;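 also: potency reflects loss of cellular ATP meaning fewer viable cells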
[3] = biological target: Voltage-dependent T-type calcium channel subunit alpha-1H (Homo sapiens, UniProt O95180); type: functional;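 also: channel activity triggered by adding a high calcium stimulation buffer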
[4] = biological target: T1, E3 ubiquitin-protein ligase XIAP (Homo sapiens, UniProt P98170); assay: Counter Screen using XIAP-Bir3 for Chemical Antagonists of Bir1/2 domains of IAP-family anti-apoptotic proteins. [Related pubchem assays (depositor defined):AID1018, AID1449, AID1514, AID1638, AID1749, AID1750, AID488957, AID488963]
T1 sequence (P98170 whole entry): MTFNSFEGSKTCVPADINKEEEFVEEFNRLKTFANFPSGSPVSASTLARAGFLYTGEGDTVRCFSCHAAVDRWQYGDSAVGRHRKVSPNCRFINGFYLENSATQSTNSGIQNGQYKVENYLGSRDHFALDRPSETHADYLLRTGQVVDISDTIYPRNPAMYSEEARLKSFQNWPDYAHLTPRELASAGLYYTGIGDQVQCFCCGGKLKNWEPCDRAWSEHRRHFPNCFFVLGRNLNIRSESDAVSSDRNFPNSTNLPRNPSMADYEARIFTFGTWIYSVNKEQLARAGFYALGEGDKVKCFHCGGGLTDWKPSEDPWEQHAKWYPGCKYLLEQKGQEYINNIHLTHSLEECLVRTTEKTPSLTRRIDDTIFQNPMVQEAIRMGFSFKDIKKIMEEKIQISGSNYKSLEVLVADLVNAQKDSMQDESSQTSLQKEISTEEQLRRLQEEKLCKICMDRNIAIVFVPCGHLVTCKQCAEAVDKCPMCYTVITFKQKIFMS

[5] = biological target: T1, E3 ubiquitin-protein ligase XIAP; assay: small molecules displacing peptide from XIAP – biochemical, IAP family, fluorescence polarization (AID 1018); type: functional
[6] = Trypanosoma cruzi growth suppression in host cells – NIH3T3 host cells, beta-gal luminescence, confirmation (AID 2044); type: functional, cell-based;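 also: intracellular parasites grown in NIH/3T3 mouse fibroblasts as host cells; luminescent beta-galactosidase reporter signal from transgenic T. cruzi replicating inside host cells; inhibitors lower the luminescence signal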
[7] = biological target: Glucose-6-phosphate 1-dehydrogenase (Homo sapiens, UniProt P11413); assay: inhibition of Homo sapiens G6PD, dose series – biochemical, fluorescence, selectivity assay for P. falciparum G6PD inhibitor project, dose response (AID 504792); type: functional
Sequence of Glucose-6-phosphate 1-dehydrogenase (P11413 whole entry): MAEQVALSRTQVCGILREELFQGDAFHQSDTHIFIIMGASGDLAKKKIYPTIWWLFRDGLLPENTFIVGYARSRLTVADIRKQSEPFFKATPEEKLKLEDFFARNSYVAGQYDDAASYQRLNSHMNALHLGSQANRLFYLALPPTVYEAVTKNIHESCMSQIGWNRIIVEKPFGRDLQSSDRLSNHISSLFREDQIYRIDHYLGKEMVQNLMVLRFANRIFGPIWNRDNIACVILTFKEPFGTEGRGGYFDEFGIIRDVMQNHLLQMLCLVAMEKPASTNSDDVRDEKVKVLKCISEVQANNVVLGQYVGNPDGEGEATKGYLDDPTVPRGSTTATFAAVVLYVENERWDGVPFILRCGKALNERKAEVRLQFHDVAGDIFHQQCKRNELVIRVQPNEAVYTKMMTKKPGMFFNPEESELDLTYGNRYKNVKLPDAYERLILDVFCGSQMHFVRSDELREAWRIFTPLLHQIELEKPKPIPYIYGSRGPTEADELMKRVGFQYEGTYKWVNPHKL

[8] = viability loss of HPDE-C7K cells – cell-based, fluorescence, HTS, primary screen (AID 431); type: functional; settings: Homo sapiens
[9] = NIH3T3 cell viability loss – ATP luminescence, mouse fibroblasts, counter-screen, dose response (AID 2010); type: functional, cell-based;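 also: cells exposed to compound for about 90 hours before reading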
Vero = assay: cells; type: functional; settings: Chlorocebus sabaeus
[10] = non-specific 3'UTR reporter inhibition in Clone20-Shn3RL – cell-based, Renilla luciferase, cherry-picked, counter-screen for Shn3 inhibitor project, dose response (AID 624133); type: functional
[11] = loss of viability in HepG2 cells – cell-based, CellTiter-Glo, cherry-picked, cytotoxicity control for Shn3 inhibitor project, dose response (AID 624134); type: functional
[12] = HPDE-C7 pancreatic duct cell viability loss – fluorescence, HTS (AID 430); type: functional, cell-based; settings: Homo sapiens
[13] = reduction of Shn3 3'UTR-driven luciferase in osteoblasts – cell-based, Clone20 osteoblasts, firefly luciferase, cherry-picked, dose response (AID 624132); type: functional;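 also: firefly luciferase luminescence from reporter carrying the Shn3 3'UTR in osteoblasts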
[14] = biological target: Neurotensin receptor type 1 (Homo sapiens, UniProt P30989); type: functional;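 also: Image-based confirmatory dose-response assay measuring agonist activity at NTR1; NTR1-expressing U2OS osteosarcoma cells imaged for beta-arrestin GFP spot formation; agonist potency where compounds increase beta-arrestin recruitment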
Sequence of Neurotensin receptor type 1 (P30989 whole entry): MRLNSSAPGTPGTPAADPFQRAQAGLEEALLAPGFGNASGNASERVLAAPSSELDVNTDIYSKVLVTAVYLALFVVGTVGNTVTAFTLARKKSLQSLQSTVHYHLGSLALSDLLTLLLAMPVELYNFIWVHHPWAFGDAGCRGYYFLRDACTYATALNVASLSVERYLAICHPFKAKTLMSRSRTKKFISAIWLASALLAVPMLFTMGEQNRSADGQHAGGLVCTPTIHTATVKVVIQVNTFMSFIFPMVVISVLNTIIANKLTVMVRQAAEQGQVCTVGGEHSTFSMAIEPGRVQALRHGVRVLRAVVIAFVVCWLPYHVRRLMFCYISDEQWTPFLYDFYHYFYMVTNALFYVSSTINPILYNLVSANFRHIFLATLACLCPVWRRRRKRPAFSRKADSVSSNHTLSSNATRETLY

[15] = biological target: Sphingosine 1-phosphate receptor 2 (Homo sapiens, UniProt O95136); assay: Dose Response Cell Based Assay for Agonists of the S1P2 Receptor. [Related pubchem assays: 729, 736, 843 ]; type: functional
Sequence of Sphingosine 1-phosphate receptor 2 (O95136 whole entry): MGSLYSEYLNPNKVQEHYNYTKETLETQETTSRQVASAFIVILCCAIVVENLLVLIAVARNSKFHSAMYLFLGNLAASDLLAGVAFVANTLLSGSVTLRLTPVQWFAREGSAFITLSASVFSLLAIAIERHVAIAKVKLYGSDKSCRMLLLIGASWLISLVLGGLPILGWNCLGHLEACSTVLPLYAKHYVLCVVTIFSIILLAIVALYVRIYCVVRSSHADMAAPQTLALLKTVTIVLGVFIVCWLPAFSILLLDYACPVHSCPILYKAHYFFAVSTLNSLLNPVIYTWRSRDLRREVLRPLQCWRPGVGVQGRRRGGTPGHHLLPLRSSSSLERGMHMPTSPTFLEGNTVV

[16] = fluconazole-exposed Candida albicans growth modulators – fluorescence, retest, confirmation (AID 2467); type: functional, cell-based
[17] = NIH-3T3 fibroblast cytotoxicity, dose response, cytotoxicity control, cell-based, fluorescence, Alamar Blue, secondary assay (AID 2327); type: functional;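 also: NIH-3T3 mouse fibroblasts cultured with fluconazole at 8 µg/mL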
[18] = reduced cellular PGC1a acetyl-lysine signal – cell-based, cherry-picked samples, dose response (AID 720514); type: functional;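 also: potency may reflect raised or lowered acetylation signal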
Cytochrome P450 2D6 = Cytochrome P450 2D6 (Homo sapiens, UniProt P10635);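 also: CYP2D6 member of a cytochrome P450 panel assay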
Sequence of Cytochrome P450 2D6 (P10635 whole entry): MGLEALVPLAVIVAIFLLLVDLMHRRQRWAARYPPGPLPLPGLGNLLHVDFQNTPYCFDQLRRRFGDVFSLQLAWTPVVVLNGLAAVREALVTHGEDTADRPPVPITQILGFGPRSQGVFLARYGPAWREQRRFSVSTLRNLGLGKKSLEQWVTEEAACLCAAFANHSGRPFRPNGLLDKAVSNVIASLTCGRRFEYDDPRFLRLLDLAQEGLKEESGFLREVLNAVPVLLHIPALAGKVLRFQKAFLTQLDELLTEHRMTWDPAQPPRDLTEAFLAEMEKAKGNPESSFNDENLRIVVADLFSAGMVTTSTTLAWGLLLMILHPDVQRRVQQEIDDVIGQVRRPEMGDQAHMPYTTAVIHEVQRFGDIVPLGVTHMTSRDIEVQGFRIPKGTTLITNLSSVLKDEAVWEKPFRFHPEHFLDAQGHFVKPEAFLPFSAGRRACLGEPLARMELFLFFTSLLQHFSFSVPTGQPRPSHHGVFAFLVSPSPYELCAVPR

cells = type: functional
[19] = THP-1 cell cytotoxicity, dose response, cytotoxicity control for non-replicating M. tuberculosis project (AID 489025); type: functional
Ephrin type-A receptor 4 = Ephrin type-A receptor 4 (Mus musculus, UniProt Q03137); assay: EphA4 ligand-binding antagonists – biochemical, colorimetric, mouse EphA4, primary screen (AID 689); type: functional
Sequence of Ephrin type-A receptor 4 (Q03137 whole entry): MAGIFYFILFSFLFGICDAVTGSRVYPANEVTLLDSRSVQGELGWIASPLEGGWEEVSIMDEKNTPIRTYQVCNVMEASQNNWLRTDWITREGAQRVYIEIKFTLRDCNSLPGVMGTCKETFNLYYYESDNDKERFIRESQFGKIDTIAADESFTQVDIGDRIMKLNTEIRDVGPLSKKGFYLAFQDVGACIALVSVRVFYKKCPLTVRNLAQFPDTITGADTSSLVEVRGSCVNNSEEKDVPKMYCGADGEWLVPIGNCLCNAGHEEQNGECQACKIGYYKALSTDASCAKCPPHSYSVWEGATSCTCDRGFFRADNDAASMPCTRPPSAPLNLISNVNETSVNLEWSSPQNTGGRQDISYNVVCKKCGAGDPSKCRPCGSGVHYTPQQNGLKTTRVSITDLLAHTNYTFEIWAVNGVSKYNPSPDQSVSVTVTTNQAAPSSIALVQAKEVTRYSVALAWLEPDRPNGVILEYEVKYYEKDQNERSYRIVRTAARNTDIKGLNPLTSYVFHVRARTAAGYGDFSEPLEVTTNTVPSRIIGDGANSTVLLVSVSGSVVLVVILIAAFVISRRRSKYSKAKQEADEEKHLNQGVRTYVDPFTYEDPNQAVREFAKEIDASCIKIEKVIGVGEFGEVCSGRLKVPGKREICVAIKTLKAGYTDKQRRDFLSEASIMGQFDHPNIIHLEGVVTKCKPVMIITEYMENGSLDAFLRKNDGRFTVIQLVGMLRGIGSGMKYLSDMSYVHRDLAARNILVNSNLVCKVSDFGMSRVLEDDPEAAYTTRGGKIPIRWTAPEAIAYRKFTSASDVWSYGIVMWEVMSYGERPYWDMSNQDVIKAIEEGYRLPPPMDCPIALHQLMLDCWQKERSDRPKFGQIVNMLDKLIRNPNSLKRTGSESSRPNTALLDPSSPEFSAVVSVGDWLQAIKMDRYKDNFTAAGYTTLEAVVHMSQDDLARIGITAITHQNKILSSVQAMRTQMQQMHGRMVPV

[20] = microbe, parasite or virus in culture; type: functional; settings: Mycobacterium tuberculosis
Cytochrome P450 2C9 = Cytochrome P450 2C9 (Homo sapiens, UniProt P11712)
Sequence of Cytochrome P450 2C9 (P11712 whole entry): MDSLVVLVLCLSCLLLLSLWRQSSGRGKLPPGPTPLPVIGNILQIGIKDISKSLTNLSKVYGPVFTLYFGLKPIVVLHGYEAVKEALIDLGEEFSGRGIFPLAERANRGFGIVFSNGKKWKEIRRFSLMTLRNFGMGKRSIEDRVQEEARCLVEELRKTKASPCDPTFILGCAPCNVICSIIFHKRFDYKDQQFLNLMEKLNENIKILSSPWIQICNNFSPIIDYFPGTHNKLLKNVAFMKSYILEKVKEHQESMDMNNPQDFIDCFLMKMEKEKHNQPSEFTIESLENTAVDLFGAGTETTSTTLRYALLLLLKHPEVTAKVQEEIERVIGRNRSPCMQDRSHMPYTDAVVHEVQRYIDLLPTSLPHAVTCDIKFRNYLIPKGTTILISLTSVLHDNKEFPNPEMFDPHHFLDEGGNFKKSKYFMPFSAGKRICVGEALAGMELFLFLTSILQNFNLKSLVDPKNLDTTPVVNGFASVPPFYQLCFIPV

Estrogen receptor beta [21] = biological target: T2, Estrogen receptor beta (Homo sapiens, UniProt Q92731);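 also: recombinant ER-beta bound to coactivator SRC1 peptide in presence of estradiol agonist; inhibitors block coactivator peptide binding and lower the FRET signal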
T2 sequence (Q92731 whole entry): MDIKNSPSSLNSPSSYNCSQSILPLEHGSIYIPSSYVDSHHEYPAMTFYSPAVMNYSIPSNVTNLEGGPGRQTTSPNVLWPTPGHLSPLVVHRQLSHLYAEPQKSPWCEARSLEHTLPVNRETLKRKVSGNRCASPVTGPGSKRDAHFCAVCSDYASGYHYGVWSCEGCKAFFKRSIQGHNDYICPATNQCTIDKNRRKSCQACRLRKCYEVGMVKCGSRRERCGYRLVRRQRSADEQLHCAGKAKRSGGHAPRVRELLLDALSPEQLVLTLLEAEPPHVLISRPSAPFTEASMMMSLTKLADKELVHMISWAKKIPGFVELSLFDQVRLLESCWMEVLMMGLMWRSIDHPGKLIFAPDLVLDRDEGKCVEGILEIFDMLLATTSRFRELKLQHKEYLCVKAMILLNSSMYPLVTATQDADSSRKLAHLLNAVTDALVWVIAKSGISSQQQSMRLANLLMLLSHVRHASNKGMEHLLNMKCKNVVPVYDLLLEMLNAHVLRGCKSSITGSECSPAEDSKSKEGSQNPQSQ

[22] = biological target: T3, Low molecular weight phosphotyrosine protein phosphatase (Homo sapiens, UniProt P24666); type: functional; settings: read-out: IC50_Mean;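 also: Dose-response confirmation assay measuring inhibition of LMPTP enzyme activity by fluorescence intensity read-out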
T3 sequence (P24666 whole entry): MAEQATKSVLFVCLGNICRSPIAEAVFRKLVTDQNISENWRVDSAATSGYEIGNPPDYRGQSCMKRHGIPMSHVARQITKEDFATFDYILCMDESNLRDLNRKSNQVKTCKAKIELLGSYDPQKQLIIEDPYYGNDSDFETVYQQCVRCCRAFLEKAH

[23] = biological target: T4, Tyrosine-protein phosphatase non-receptor type 7 (Homo sapiens, UniProt P35236); assay: HePTP tyrosine phosphatase activity blockers – biochemical, absorbance, leukemia target, primary screen (AID 521); type: functional
T4 sequence (P35236 whole entry): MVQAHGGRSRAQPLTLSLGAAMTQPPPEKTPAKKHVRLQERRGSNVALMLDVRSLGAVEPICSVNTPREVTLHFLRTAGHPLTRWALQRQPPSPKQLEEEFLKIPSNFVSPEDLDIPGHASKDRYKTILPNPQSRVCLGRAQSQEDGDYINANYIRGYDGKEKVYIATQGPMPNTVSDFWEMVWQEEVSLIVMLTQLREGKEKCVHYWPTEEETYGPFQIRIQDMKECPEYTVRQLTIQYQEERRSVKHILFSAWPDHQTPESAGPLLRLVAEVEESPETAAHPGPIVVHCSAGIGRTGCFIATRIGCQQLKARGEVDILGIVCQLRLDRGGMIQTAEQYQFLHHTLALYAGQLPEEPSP

Estrogen receptor beta [24] = biological target: T2, Estrogen receptor beta; assay: blockers of SRC-3 recruitment to ERβ – biochemical, ELISA, streptavidin-HRP readout, orthogonal assay, confirmation (AID 1060)

Q: With `COc1ccc(OC)c(NC(=O)C2CCN(Cc3cnn(-c4ccccc4)c3-n3cccc3)CC2)c1` as the compound, how does the IC50 [1] read?
A: > 109 µM (inactive)

Q: And the IC50 [2]?
A: > 83.3 µM (inactive)

Q: What about the EC50 [3] of the same compound?
A: 2.48 µM (active)

Q: For `Cc1sc2nc(CN(C(=O)NC3CCCCC3)C3CCCCC3)nc(O)c2c1C`, which IC50 [4] is on record?
A: > 100 µM (inactive)

Q: And the IC50 [5]?
A: > 100 µM (not active)

Q: Which results are given for `O=C(Nc1ccc(N2CCN(C(=O)c3ccco3)CC2)c(Cl)c1)c1cc2ccccc2o1`?
A: EC50 [6]: 2.3 µM (active); IC50 [7]: > 80 µM (inactive); EC50 [8]: 16.2 µM (active); EC50 [9]: 8.95 µM (active); CC50 (Vero): 11.2 µM (active); AC50 [10]: 17.6 µM (active); AC50 [11]: 7.49 µM (active); EC50 [12]: 17.5 µM (active); AC50 [13]: 5 µM (active); EC50 [14]: 6 µM (active)

Q: With `c1ccc(-c2nc3ccccn3c2NCc2ccc3c(c2)OCO3)cc1` as the compound, how does the EC50 [15] read?
A: > 50 µM (not active)

Q: Which results are given for `Sc1ncnc2c1cnn2Cc1ccccc1`?
A: EC50 [16]: 3.56 µM (active); EC50 [17]: > 150 µM (inactive); AC50 [18]: 11.2 µM (active)

Q: Which AC50 (Cytochrome P450 2D6) does the source give for `CCCCCCOC(=O)C(C#N)c1nc2ccccc2nc1N1CCN(CC)CC1` (centres undefined) here?
A: 25.1 µM (inconclusive)

Q: What about the IC50 (cells) of the same compound?
A: 13.6 µM (active)

Q: What about the CC50 [19] of the same compound?
A: 24.7 µM (active)

Q: And the IC50 (Ephrin type-A receptor 4)?
A: > 100 µM (not active)

Q: What about the CC50 [20] of the same compound?
A: 19.7 µM (active)

Q: And the AC50 (Cytochrome P450 2C9)?
A: 7.94 µM (inconclusive)

Q: With `CCc1nc2sc3ccccc3c(=O)c2c(=O)n1Cc1ccco1` as the compound, how does the IC50 (Estrogen receptor beta [21]) read?
A: 6.59 µM (active)

Q: What about the IC50 [22] of the same compound?
A: 52.2 µM (inactive)

Q: What about the IC50 [23] of the same compound?
A: 15.1 µM (active)

Q: And the IC50 (Estrogen receptor beta [24])?
A: 12.6 µM (not active)
